Literature values, collected in US20090264528A1, “SERINE PALMITOYLCOA TRANSFERASE (SPT) INHIBITION BY MYRIOCIN OR GENETIC DEFICIENCY DECREASES CHOLESTEROL ABSORPTION” (The Research Foundation of State University of New York, priority 2008, published 2009).

Conditions: apoE KO mice; cited from earlier work

CCCCCCCCc1ccc(CCC(N)(CO)CO)cc1 [FTY720]
plasma cholesterol levels: increases
